≈ marks a conversion by molar mass, not a printed value. Where two headings read alike, the source gives them in different places.
Legend:
[1] = tested on: Haemophilus influenzae DILL AMP R; test: In vitro antibacterial activity, agar dilution MIC; assay type: cell-based; conditions: H. influenzae DILL AMP R
Method: (§1) The antimicrobial spectra of a number of compounds of the invention were tested by the following method:
(§2) Twelve petri dishes containing successive aqueous dilutions of the test compound mixed with 10 ml of sterilized Brain Heart Infusion agar (Difco 0418-01-5) are prepared. Each plate is inoculated with 1:100 (or 1:10 for slow growing strains, primarily Micrococcus and Streptococcus) dilutions of up to 32 different microorganisms, using a Steers replicator block The inoculated plates are incubated at 35°-37° C. for 20-24 hours. In addition, a control plate, using BHI agar containing no test compound, is prepared and incubated at the beginning and end of each test.
(§3) An additional plate containing a compound having known susceptibility patterns for the organisms being tested and belonging to the same antibiotic class as the test compound is also prepared and incubated as a further control, as well as to provide test-to-test comparability. Erythromycin A was used for this purpose.
(§4) After incubation, each disk is read. The MIC is defined as the lowest concentration of drug yielding no growth, a slight haze, or sparsely isolated colonies on the inoculum spot as compared to the growth control.

[2] = tested on: Haemophilus influenzae 519A; test: In vitro antibacterial activity, agar dilution MIC; assay type: cell-based; conditions: H. influenzae 519A
Method: as §1, §2, §3, §4

[3] = tested on: Haemophilus influenzae 751; test: In vitro antibacterial activity, agar dilution MIC; assay type: cell-based; conditions: H. influenzae 751
Method: as §1, §2, §3, §4

[4] = tested on: Haemophilus influenzae 632A; test: In vitro antibacterial activity, agar dilution MIC; assay type: cell-based; conditions: H. influenzae 632A
Method: as §1, §2, §3, §4

[5] = tested on: Haemophilus influenzae 747C; test: In vitro antibacterial activity, agar dilution MIC; assay type: cell-based; conditions: H. influenzae 747C
Method: as §1, §2, §3, §4

[6] = tested on: Haemophilus influenzae ATCC 10211; test: In vitro antibacterial activity, agar dilution MIC; assay type: cell-based; conditions: ATCC10211, H. influenzae ATCC 10211
Method: as §1, §2, §3, §4

[7] = tested on: Haemophilus influenzae ATCC 19418; test: In vitro antibacterial activity, agar dilution MIC; assay type: cell-based; conditions: ATCC19418, H. influenzae ATCC 19418
Method: as §1, §2, §3, §4

[8] = tested on: Haemophilus influenzae 503B; test: In vitro antibacterial activity, agar dilution MIC; assay type: cell-based; conditions: H. influenzae 503B
Method: as §1, §2, §3, §4

[9] = tested on: Haemophilus influenzae SPK AMP R; test: In vitro antibacterial activity, agar dilution MIC; assay type: cell-based; conditions: H. influenzae SPK AMP R
Method: as §1, §2, §3, §4

[10] = tested on: Haemophilus influenzae 1177; test: In vitro antibacterial activity, agar dilution MIC; assay type: cell-based; conditions: H. influenzae 1177
Method: as §1, §2, §3, §4

[11] = tested on: Haemophilus influenzae 1435; test: In vitro antibacterial activity, agar dilution MIC; assay type: cell-based; conditions: H. influenzae 1435
Method: as §1, §2, §3, §4

[12] = tested on: Haemophilus influenzae ATCC 9795; test: In vitro antibacterial activity, agar dilution MIC; assay type: cell-based; conditions: ATCC9795, H. influenzae ATCC 9795
Method: as §1, §2, §3, §4

[13] = tested on: Haemophilus influenzae 504; test: In vitro antibacterial activity, agar dilution MIC; assay type: cell-based; conditions: H. influenzae 504
Method: as §1, §2, §3, §4

[14] = tested on: Haemophilus influenzae SOL AMP R; test: In vitro antibacterial activity, agar dilution MIC; assay type: cell-based; conditions: H. influenzae SOL AMP R
Method: as §1, §2, §3, §4

[15] = tested on: Haemophilus influenzae 588A; test: In vitro antibacterial activity, agar dilution MIC; assay type: cell-based; conditions: H. influenzae 588A
Method: as §1, §2, §3, §4

[16] = tested on: Haemophilus influenzae 667A; test: In vitro antibacterial activity, agar dilution MIC; assay type: cell-based; conditions: H. influenzae 667A
Method: as §1, §2, §3, §4

[17] = tested on: Haemophilus influenzae 566A; test: In vitro antibacterial activity, agar dilution MIC; assay type: cell-based; conditions: H. influenzae 566A
Method: as §1, §2, §3, §4

[18] = tested on: Streptococcus pyogenes 2548 INDUC; test: In vitro antibacterial activity, agar dilution MIC; assay type: cell-based; conditions: S. pyogenes 2548 INDUC, Brain Heart Infusion agar, 20-24 hours, read-out: MIC
Method: as §1, §2, §3, §4

[19] = tested on: Staphylococcus aureus ATCC 6538P; test: In vitro antibacterial activity, agar dilution MIC; assay type: cell-based; conditions: ATCC6538P, S. aureus ATCC 6538P, Brain Heart Infusion agar, 35-37° C., 20-24 hours, read-out: MIC
Method: as §1, §2, §3, §4

[20] = tested on: Micrococcus luteus ATCC 4698; test: In vitro antibacterial activity, agar dilution MIC; assay type: cell-based; conditions: ATCC4698
Method: as §1, §2, §3, §4

[21] = tested on: Escherichia coli H560; test: In vitro antibacterial activity, agar dilution MIC; assay type: cell-based; conditions: E. coli H560, Brain Heart Infusion agar, 20-24 hours, read-out: MIC
Method: as §1, §2, §3, §4

[22] = tested on: Staphylococcus aureus A5177; test: In vitro antibacterial activity, agar dilution MIC; assay type: cell-based; conditions: S. aureus A5177, Brain Heart Infusion agar, 20-24 hours, read-out: MIC
Method: as §1, §2, §3, §4

[23] = tested on: Staphylococcus epidermidis 3519; test: In vitro antibacterial activity, agar dilution MIC; assay type: cell-based; conditions: S. epidermidis 3519, Brain Heart Infusion agar, 20-24 hours, read-out: MIC
Method: as §1, §2, §3, §4

[24] = tested on: Escherichia coli Juhl; test: In vitro antibacterial activity, agar dilution MIC; assay type: cell-based
Method: as §1, §2, §3, §4

[25] = tested on: Streptococcus pyogenes EES61; test: In vitro antibacterial activity, agar dilution MIC; assay type: cell-based; conditions: S. pyogenes EES61, Brain Heart Infusion agar, 20-24 hours, read-out: MIC
Method: as §1, §2, §3, §4

[26] = tested on: Escherichia coli DC-2; test: In vitro antibacterial activity, agar dilution MIC; assay type: cell-based; conditions: DC2, E. coli DC-2, Brain Heart Infusion agar, 20-24 hours, read-out: MIC
Method: as §1, §2, §3, §4

[27] = tested on: Staphylococcus aureus 45; test: In vitro antibacterial activity, agar dilution MIC; assay type: cell-based; conditions: 45
Method: as §1, §2, §3, §4

[28] = tested on: Escherichia coli SS; test: In vitro antibacterial activity, agar dilution MIC; assay type: cell-based; conditions: read-out: MIC
Method: as §1, §2, §3, §4

[29] = tested on: Enterococcus faecium ATCC 8043; test: In vitro antibacterial activity, agar dilution MIC; assay type: cell-based; conditions: ATCC8043, read-out: MIC
Method: as §1, §2, §3, §4

[30] = tested on: Micrococcus luteus ATCC 9341; test: In vitro antibacterial activity, agar dilution MIC; assay type: cell-based; conditions: ATCC9341, M. luteus ATCC 9341, Brain Heart Infusion agar, 20-24 hours, read-out: MIC
Method: as §1, §2, §3, §4

[31] = tested on: Streptococcus pyogenes 930 CONST; test: In vitro antibacterial activity, agar dilution MIC; assay type: cell-based; conditions: 930CONST
Method: as §1, §2, §3, §4

[32] = tested on: Streptococcus agalactiae CMX 508; test: In vitro antibacterial activity, agar dilution MIC; assay type: cell-based; conditions: CMX508, S. agalactiae CMX 508, Brain Heart Infusion agar, 20-24 hours, read-out: MIC
Method: as §1, §2, §3, §4

[33] = tested on: Staphylococcus aureus CMX 503A; test: In vitro antibacterial activity, agar dilution MIC; assay type: cell-based; conditions: CMX503A, S. aureus CMX 503A, Brain Heart Infusion agar, 20-24 hours, read-out: MIC
Method: as §1, §2, §3, §4

[34] = tested on: Staphylococcus aureus CMX 686B; test: In vitro antibacterial activity, agar dilution MIC; assay type: cell-based; conditions: CMX686B, S. aureus CMX 686B, Brain Heart Infusion agar, 20-24 hours, read-out: MIC
Method: as §1, §2, §3, §4

[35] = tested on: Streptococcus bovis A5169; test: In vitro antibacterial activity, agar dilution MIC; assay type: cell-based; conditions: read-out: MIC
Method: as §1, §2, §3, §4

[36] = tested on: Staphylococcus aureus CMX 553; test: In vitro antibacterial activity, agar dilution MIC; assay type: cell-based; conditions: CMX553, S. aureus CMX 553, Brain Heart Infusion agar, 20-24 hours, read-out: MIC
Method: as §1, §2, §3, §4

[37] = tested on: Staphylococcus aureus 45 RAR 2; test: microbe, parasite or virus in culture; assay type: cell-based; conditions: 45RAR2
Method: as §1, §2, §3, §4

[38] = tested on: Staphylococcus aureus (NCTC 10649); test: In-vivo mouse protection assay (acute mouse protection test); set-up: species or system Swiss albino mice; conditions: S. aureus NCTC 10649, dosed 1 and 5 hours post infection, 7 days, read-out: ED50
Method: (§5) The acute mouse protection test is conducted on ten mice with each of three levels of drug. Mouse mortality is used to calculate an ED50 value, i.e., the dose of drug required to protect 50% of the test animals against death due to the inoculum challenge.
(§6) The acute mouse protection test is conducted on female, Swiss albino mice, 18-20 grams in weight. […] To check the potency of the inoculum, a titration of the indicated test organism is carried out in control animals. The treatment group of animals is dosed with the test compound at 1 and 5 hours post infection and observed for 7 days. The ED50 values are calculated using the mortality data collected.

[39] = tested on: Streptococcus pyogenes C-203; test: as above; set-up: species or system Swiss albino mice; conditions: S. pyogenes C-203, dosed 1 and 5 hours post infection, 7 days, read-out: ED50
Method: as §5, §6

[40] = tested on: Streptococcus pneumoniae (6303); test: as above; set-up: species or system Swiss albino mice; conditions: 168 h
Method: as §5, §6

## CC[C@H]1OC(=O)[C@H](C)[C@@H](O[C@H]2C[C@@](C)(OC)[C@@H](O)[C@H](C)O2)[C@H](C)[C@@H](O[C@@H]2O[C@H](C)C[C@H](N(C)C)[C@H]2O)[C@](C)(O)C[C@@H](C)[C@@H](N2CCC(=O)CC2)[C@H](C)[C@@H](O)[C@]1(C)O [Example 28]
[1]
  MIC: 0.5 µg/mL (≈ 0.612 µM)
[2]
  MIC: 0.25 µg/mL (≈ 0.306 µM)
[3]
  MIC: 2 µg/mL (≈ 2.45 µM)
[4]
  MIC: 2 µg/mL (≈ 2.45 µM)
[5]
  MIC: 0.5 µg/mL (≈ 0.612 µM)
[6]
  MIC: 5 µg/mL (≈ 6.12 µM)
[7]
  MIC: 1 µg/mL (≈ 1.22 µM)
[8]
  MIC: 0.25 µg/mL (≈ 0.306 µM)
[9]
  MIC: 0.5 µg/mL (≈ 0.612 µM)
[10]
  MIC: 0.25 µg/mL (≈ 0.306 µM)
[11]
  MIC: 0.25 µg/mL (≈ 0.306 µM)
[12]
  MIC: 1 µg/mL (≈ 1.22 µM)
[13]
  MIC: 1 µg/mL (≈ 1.22 µM)
[14]
  MIC: 0.5 µg/mL (≈ 0.612 µM)
[15]
  MIC: 1 µg/mL (≈ 1.22 µM)
[16]
  MIC: 1 µg/mL (≈ 1.22 µM)
[17]
  MIC: 2 µg/mL (≈ 2.45 µM)

## CC[C@H]1OC(=O)[C@H](C)[C@@H](O[C@H]2C[C@@](C)(OC)[C@@H](N)[C@H](C)O2)[C@H](C)[C@@H](O[C@@H]2O[C@H](C)C[C@H](N(C)C)[C@H]2O)[C@](C)(O)C[C@@H](C)[C@@H](N2CCCCC2)[C@H](C)[C@@H](O)[C@]1(C)O [Example 31]
[18]
  MIC: 6.2 µg/mL (≈ 7.73 µM)
[19]
  MIC: 0.78 µg/mL (≈ 0.972 µM)
[20]
  MIC: 0.39 µg/mL (≈ 0.486 µM)
[21]
  MIC: 1.56 µg/mL (≈ 1.94 µM)
[22]
  MIC: 6.2 µg/mL (≈ 7.73 µM)
[23]
  MIC: 0.78 µg/mL (≈ 0.972 µM)
[24]
  MIC: 6.2 µg/mL (≈ 7.73 µM)
[25]
  MIC: 0.05 µg/mL (≈ 0.0623 µM)
[26]
  MIC: 3.1 µg/mL (≈ 3.86 µM)
[27]
  MIC: 0.39 µg/mL (≈ 0.486 µM)
[28]
  MIC: 0.2 µg/mL (≈ 0.249 µM)
[29]
  MIC: 0.2 µg/mL (≈ 0.249 µM)
[30]
  MIC: 0.05 µg/mL (≈ 0.0623 µM)
[31]
  MIC: > 100 µg/mL
[32]
  MIC: 0.05 µg/mL (≈ 0.0623 µM)
[33]
  MIC: 0.78 µg/mL (≈ 0.972 µM)
[34]
  MIC: 0.39 µg/mL (≈ 0.486 µM)
[35]
  MIC: 0.02 µg/mL (≈ 0.0249 µM)
[36]
  MIC: 0.39 µg/mL (≈ 0.486 µM)
[37]
  MIC: 0.78 µg/mL (≈ 0.972 µM)
[38]; NCTC10649, 168 h, Oral
  ED50: 125 mg/kg
[38]; NCTC10649, sc, 168 h, Subcutaneous
  ED50: 25.7 mg/kg
[39]; C203, 168 h, Oral
  ED50: 27.9 mg/kg
[39]; C203, sc, 168 h, Subcutaneous
  ED50: 0.8 mg/kg
[40]; po
  ED50: 13.8 mg/kg
[40]; sc, Subcutaneous, S. pneumoniae 6303, dosed 1 and 5 hours post infection, 7 days, read-out: ED50
  ED50: 1 mg/kg
